# Results: PubChem BioAssay AID256 (DTP/NCI, 2004)
# “And” between values parts separate entries of the source, which are not always exact repeats. Equal values may be shown once. Toxic doses and inconclusive results are not listed.
# Test system: CD2F1 mice, L1210 leukemia ip, survival T/C
# Assay: NCI In Vivo Anticancer Drug Screen. Data for tumor model L1210 Leukemia (intraperitoneal) in CD2F1 (CDF1) mice
# Conditions: higher = longer survival
# In short: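 Compound-dosed mice with transplantable tumor versus matched vehicle controls; endpoint ratio T/C reported.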
# [1] = endpoint: mean survival time, dose: 100.0 mg/kg/injection, schedule: Q04DX003 (ip), vehicle: saline with Tween-80
# [2] = endpoint: mean survival time, dose: 200.0 mg/kg/injection, schedule: Q04DX003 (ip), vehicle: saline with Tween-80
# [3] = endpoint: mean survival time, dose: 400.0 mg/kg/injection, schedule: Q04DX003 (ip), vehicle: saline with Tween-80
# [4] = endpoint: mean survival time, dose: 50.0 mg/kg/injection, schedule: Q01DX009 (ip), vehicle: saline with Tween-80
# [5] = endpoint: mean survival time, dose: 100.0 mg/kg/injection, schedule: Q01DX009 (ip), vehicle: saline with Tween-80
# [6] = endpoint: mean survival time, dose: 100.0 mg/kg/injection, schedule: Q01DX001 (ip), vehicle: saline
# [7] = endpoint: mean survival time, dose: 200.0 mg/kg/injection, schedule: Q01DX001 (ip), vehicle: saline
# [8] = endpoint: mean survival time, dose: 400.0 mg/kg/injection, schedule: Q01DX001 (ip), vehicle: saline
# [9] = endpoint: mean survival time, dose: 100.0 mg/kg/injection, schedule: Q01DX009 (ip), vehicle: other
# [10] = endpoint: mean survival time, dose: 200.0 mg/kg/injection, schedule: Q01DX009 (ip), vehicle: other
# [11] = endpoint: mean survival time, dose: 200.0 mg/kg/injection, schedule: Q01DX009 (ip), vehicle: saline with Tween-80
# [12] = endpoint: mean survival time, dose: 100.0 mg/kg/injection, schedule: Q04DX002 (ip), vehicle: saline with Tween-80
smiles,measurement,setting,value
CCOC(=O)C[Si](C)(C)C,T/C,"endpoint: mean survival time, dose: 25.0 mg/kg/injection, schedule: Q01DX005 (ip), vehicle: water",101 % of control
same,T/C,"endpoint: mean survival time, dose: 50.0 mg/kg/injection, schedule: Q01DX005 (ip), vehicle: water",104 % of control
same,T/C,"endpoint: mean survival time, dose: 100.0 mg/kg/injection, schedule: Q01DX005 (ip), vehicle: water",101 % of control
same,T/C,"endpoint: mean survival time, dose: 200.0 mg/kg/injection, schedule: Q01DX005 (ip), vehicle: water",104 % of control
same,T/C,"endpoint: mean survival time, dose: 400.0 mg/kg/injection, schedule: Q01DX005 (ip), vehicle: water",101 % of control
BrC1CCCCCC12OCCO2 (stereo not drawn),T/C,[1],86 % of control
same,T/C,[2],94 % of control
same,T/C,[3],89 % of control
COc1cc2c(c(OC)c1O)-c1ccc(OC)c(=O)cc1[C@@H](NC(C)=O)CC2,T/C,"endpoint: mean survival time, dose: 1.25 mg/kg/injection, schedule: Q01DX005 (ip), vehicle: Klucel (hydroxypropylcellulose) (HPC)",103 % of control
same,T/C,"endpoint: mean survival time, dose: 2.5 mg/kg/injection, schedule: Q01DX005 (ip), vehicle: Klucel (hydroxypropylcellulose) (HPC)",104 % of control
same,T/C,"endpoint: mean survival time, dose: 3.12 mg/kg/injection, schedule: Q01DX009 (ip), vehicle: saline",118 % of control
same,T/C,"endpoint: mean survival time, dose: 5.0 mg/kg/injection, schedule: Q01DX005 (ip), vehicle: Klucel (hydroxypropylcellulose) (HPC)",110 % of control
same,T/C,"endpoint: mean survival time, dose: 20.0 mg/kg/injection, schedule: Q01DX005 (ip), vehicle: Klucel (hydroxypropylcellulose) (HPC)",121 % of control
same,T/C,"endpoint: mean survival time, dose: 40.0 mg/kg/injection, schedule: Q01DX005 (ip), vehicle: Klucel (hydroxypropylcellulose) (HPC)",110 % of control
CN(C)c1ccc2c(NCCCCCCNc3ccnc4cc(N(C)C)ccc34)ccnc2c1,T/C,"endpoint: median survival time, dose: 1.56 mg/kg/injection, schedule: Q01DX009 (ip), vehicle: distilled water + Tween-80 + alcohol",105 % of control
same,T/C,"endpoint: median survival time, dose: 3.12 mg/kg/injection, schedule: Q01DX009 (ip), vehicle: distilled water + Tween-80 + alcohol",104 % of control
same,T/C,"endpoint: median survival time, dose: 6.25 mg/kg/injection, schedule: Q01DX009 (ip), vehicle: distilled water + Tween-80 + alcohol",111 % of control
CCCCCCCCCCCCCCCC(O)S(=O)(=O)O (stereo not drawn),T/C,[4],93 % of control
same,T/C,[5],94 % of control
CCN(CC)CCOc1ccc2c(c1)C(=O)c1cc(OCCN(CC)CC)ccc1-2,T/C,"endpoint: mean survival time, dose: 12.5 mg/kg/injection, schedule: Q01DX009 (ip), vehicle: saline",95 % of control
same,T/C,"endpoint: mean survival time, dose: 25.0 mg/kg/injection, schedule: Q01DX009 (ip), vehicle: saline",98 % of control
same,T/C,"endpoint: mean survival time, dose: 50.0 mg/kg/injection, schedule: Q01DX009 (ip), vehicle: saline",101 % of control
BrC/C(=N\N1CCCCC1)c1ccc(Br)cc1,T/C,"endpoint: mean survival time, dose: 25.0 mg/kg/injection, schedule: Q01DX009 (ip), vehicle: saline sonified",100 % of control
same,T/C,"endpoint: mean survival time, dose: 50.0 mg/kg/injection, schedule: Q01DX009 (ip), vehicle: saline sonified",96 % of control
same,T/C,[6],94 % of control
same,T/C,"endpoint: mean survival time, dose: 100.0 mg/kg/injection, schedule: Q01DX009 (ip), vehicle: saline sonified",96 % of control
same,T/C,[7],102 % of control
same,T/C,[8],95 % of control
c1ccc2c(c1)ccc1c3ccccc3[nH]c21,T/C,[9],94 % of control
same,T/C,[10],97 % of control
same,T/C,"endpoint: mean survival time, dose: 400.0 mg/kg/injection, schedule: Q01DX009 (ip), vehicle: other",96 % of control
CCN(CC)CCOC(=O)c1ccc(NC(=O)COc2ccc3ccccc3c2)cc1,T/C,"endpoint: mean survival time, dose: 12.5 mg/kg/injection, schedule: Q01DX009 (ip), vehicle: other",98 % of control and 97 % of control
same,T/C,"endpoint: mean survival time, dose: 25.0 mg/kg/injection, schedule: Q01DX009 (ip), vehicle: other",97 % of control
same,T/C,"endpoint: mean survival time, dose: 50.0 mg/kg/injection, schedule: Q01DX009 (ip), vehicle: other",98 % of control and 93 % of control
same,T/C,[9],94 % of control and 93 % of control
same,T/C,[10],97 % of control and 93 % of control
C[N+](C)=CN1c2ccccc2Sc2ccccc21,T/C,[5],97 % of control
same,T/C,[11],103 % of control
CCOC(=O)c1c(C)[nH]oc1=O,T/C,[5],96 % of control
CC(C)C(S(=O)(=O)c1ccccc1)S(=O)(=O)c1ccccc1,T/C,[6],105 % of control
same,T/C,[7],103 % of control
same,T/C,[8],96 % of control
Cc1c(F)cccc1NC(=O)OC(C)C,T/C,[12],97 % of control
same,T/C,"endpoint: mean survival time, dose: 200.0 mg/kg/injection, schedule: Q04DX002 (ip), vehicle: saline with Tween-80",102 % of control
same,T/C,"endpoint: mean survival time, dose: 400.0 mg/kg/injection, schedule: Q04DX002 (ip), vehicle: saline with Tween-80",94 % of control
N#Cc1cn(C2OC(CO)C(O)C2O)c2[nH]cnc(=S)c12 (stereo not drawn),T/C,[6],103 % of control
same,T/C,[7],108 % of control
same,T/C,[8],109 % of control
COc1ccc(COC(=O)Oc2ccc(C)cc2)cc1OC,T/C,[5],100 % of control
same,T/C,[11],102 % of control
same,T/C,"endpoint: mean survival time, dose: 400.0 mg/kg/injection, schedule: Q01DX009 (ip), vehicle: saline with Tween-80",98 % of control
NC(=O)C1C=CN(Cc2ccccc2)C=C1,T/C,"endpoint: median survival time, dose: 30.0 mg/kg/injection, schedule: Q01DX005 (ip), vehicle: saline with Tween-80",100 % of control
same,T/C,"endpoint: median survival time, dose: 60.0 mg/kg/injection, schedule: Q01DX005 (ip), vehicle: saline with Tween-80",107 % of control
same,T/C,"endpoint: median survival time, dose: 120.0 mg/kg/injection, schedule: Q01DX005 (ip), vehicle: saline with Tween-80",111 % of control
Cc1ccc(S(=O)(=O)N/N=C/c2ccc(O)c(O)c2)cc1,T/C,"endpoint: mean survival time, dose: 12.5 mg/kg/injection, schedule: Q04DX003 (ip), vehicle: other",101 % of control
same,T/C,"endpoint: mean survival time, dose: 25.0 mg/kg/injection, schedule: Q04DX003 (ip), vehicle: other",98 % of control
same,T/C,"endpoint: mean survival time, dose: 50.0 mg/kg/injection, schedule: Q04DX003 (ip), vehicle: other",101 % of control
same,T/C,"endpoint: mean survival time, dose: 100.0 mg/kg/injection, schedule: Q04DX003 (ip), vehicle: other",101 % of control
same,T/C,"endpoint: mean survival time, dose: 200.0 mg/kg/injection, schedule: Q04DX003 (ip), vehicle: other",95 % of control
same,T/C,"endpoint: mean survival time, dose: 400.0 mg/kg/injection, schedule: Q04DX003 (ip), vehicle: other",101 % of control
OCC1OC(n2nnc3cc[nH]c(=S)c32)C(O)C1O (stereo not drawn),T/C,"endpoint: mean survival time, dose: 11.9 mg/kg/injection, schedule: Q01DX005 (ip), vehicle: water",96 % of control
same,T/C,"endpoint: mean survival time, dose: 23.8 mg/kg/injection, schedule: Q01DX005 (ip), vehicle: water",113 % of control
Cc1ccc(S(=O)(=O)OCC(OS(=O)(=O)c2ccc(C)cc2)C(O)C(O)C(O)CO)cc1 (stereo not drawn),T/C,[1],97 % of control
same,T/C,[2],91 % of control
same,T/C,[3],91 % of control
CCC1(O)C(=O)OCc2c1cc1n(c2=O)Cc2cc3cc(OC)c(OC)cc3nc2-1 (stereo not drawn),T/C,"endpoint: median survival time, dose: 6.25 mg/kg/injection, schedule: Q04DX002 (ip), vehicle: saline with Tween-80",103 % of control
same,T/C,"endpoint: median survival time, dose: 12.5 mg/kg/injection, schedule: Q04DX002 (ip), vehicle: saline with Tween-80",101 % of control
same,T/C,"endpoint: median survival time, dose: 25.0 mg/kg/injection, schedule: Q04DX002 (ip), vehicle: saline with Tween-80",103 % of control
same,T/C,"endpoint: median survival time, dose: 50.0 mg/kg/injection, schedule: Q04DX002 (ip), vehicle: saline with Tween-80",94 % of control
CCCCN(C)c1ccc(N=Nc2cc(Cl)ccc2Cl)cc1,T/C,"endpoint: mean survival time, dose: 25.0 mg/kg/injection, schedule: Q04DX002 (ip), vehicle: saline with Tween-80",96 % of control
same,T/C,"endpoint: mean survival time, dose: 50.0 mg/kg/injection, schedule: Q04DX002 (ip), vehicle: saline with Tween-80",101 % of control
same,T/C,[12],104 % of control
CC(C)(C)N1CCOCC1,T/C,[1],100 % of control
COc1cccc2c1[C@H]1CO[C@H]3C4C[C@H](C(=O)O)C([C@@H](C2)N13)N4C (stereo partly drawn),T/C,"endpoint: median survival time, dose: 0.31 mg/kg/injection, schedule: Q01DX005 (ip), vehicle: water",90 % of control
same,T/C,"endpoint: median survival time, dose: 0.62 mg/kg/injection, schedule: Q01DX005 (ip), vehicle: water",101 % of control
same,T/C,"endpoint: median survival time, dose: 1.25 mg/kg/injection, schedule: Q01DX005 (ip), vehicle: water",102 % of control
same,T/C,"endpoint: median survival time, dose: 2.5 mg/kg/injection, schedule: Q01DX005 (ip), vehicle: water",112 % of control
same,T/C,"endpoint: median survival time, dose: 5.0 mg/kg/injection, schedule: Q01DX005 (ip), vehicle: water",121 % of control
NC(C=O)C(O)C(O)C(O)CO (stereo not drawn),T/C,"endpoint: mean survival time, dose: 100.0 mg/kg/injection, schedule: Q04DX002 (ip), vehicle: saline",97 % of control
same,T/C,"endpoint: mean survival time, dose: 200.0 mg/kg/injection, schedule: Q04DX002 (ip), vehicle: saline",97 % of control
same,T/C,"endpoint: mean survival time, dose: 400.0 mg/kg/injection, schedule: Q04DX002 (ip), vehicle: saline",97 % of control
CN(C)N=Nc1ccc(/C=C/C(=O)O)cc1,T/C,"endpoint: mean survival time, dose: 12.5 mg/kg/injection, schedule: Q01DX009 (ip), vehicle: Klucel (hydroxypropylcellulose) (HPC)",105 % of control
same,T/C,"endpoint: mean survival time, dose: 25.0 mg/kg/injection, schedule: Q01DX009 (ip), vehicle: Klucel (hydroxypropylcellulose) (HPC)",111 % of control
same,T/C,"endpoint: mean survival time, dose: 100.0 mg/kg/injection, schedule: Q01DX009 (ip), vehicle: Klucel (hydroxypropylcellulose) (HPC)",150 % of control
O=[N+]([O-])c1ccc(SSc2ccc([N+](=O)[O-])cn2)nc1,T/C,[4],93 % of control
same,T/C,[5],89 % of control
same,T/C,[1],100 % of control
same,T/C,[2],100 % of control
